Experiments:
[1] = target: T1, human NHE-3 (Homo sapiens, UniProt P48764); experiment: Cell-based assay of NHE-3 activity (human NHE3 inhibition assay); details: OK cells with human NHE-3 gene, BCECF pH dye, 0-30 μM test compound; for IC50: read-out: Human NHE3 pIC50 (converted)
T1 construct: expressed in transfected cells; host or cells: Opossum kidney (OK) cells (ATCC), transfected by electroporation
T1 sequence (P48764 26-834): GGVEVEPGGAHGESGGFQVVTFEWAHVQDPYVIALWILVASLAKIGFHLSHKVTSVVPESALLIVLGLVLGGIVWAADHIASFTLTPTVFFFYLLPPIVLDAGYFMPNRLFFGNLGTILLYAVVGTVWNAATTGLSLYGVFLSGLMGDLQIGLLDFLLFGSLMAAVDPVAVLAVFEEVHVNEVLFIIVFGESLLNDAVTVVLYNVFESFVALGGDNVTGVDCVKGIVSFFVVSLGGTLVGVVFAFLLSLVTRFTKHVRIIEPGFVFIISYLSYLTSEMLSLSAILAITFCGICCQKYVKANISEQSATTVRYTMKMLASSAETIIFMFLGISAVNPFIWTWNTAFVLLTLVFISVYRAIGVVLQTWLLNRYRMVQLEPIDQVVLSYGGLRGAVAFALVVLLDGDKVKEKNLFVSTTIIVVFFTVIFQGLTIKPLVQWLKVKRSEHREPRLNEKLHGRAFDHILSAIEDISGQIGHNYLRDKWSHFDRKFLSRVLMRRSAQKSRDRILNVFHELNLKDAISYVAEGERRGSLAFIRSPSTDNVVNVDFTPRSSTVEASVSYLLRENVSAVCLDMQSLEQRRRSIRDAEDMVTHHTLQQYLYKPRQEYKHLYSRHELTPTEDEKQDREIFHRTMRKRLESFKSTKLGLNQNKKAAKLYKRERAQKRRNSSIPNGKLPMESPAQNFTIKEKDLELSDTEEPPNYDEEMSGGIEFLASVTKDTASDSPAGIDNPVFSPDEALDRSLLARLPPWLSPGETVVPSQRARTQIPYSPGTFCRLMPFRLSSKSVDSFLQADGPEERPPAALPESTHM
Experimental: (§1) Rat or human NHE-3-mediated Na^+-dependent H^+ antiport was measured using a modification of the pH sensitive dye method originally reported by Paradiso (Proc. Natl. Acad. Sci. USA. (1984) 81(23): 7436-7440). Opossum kidney (OK) cells were obtained from the ATCC and propagated per their instructions. The rat NHE-3 gene (GenBank M85300) or the human NHE-3 gene (GenBank NM_004174.1) was introduced into OK cells via electroporation, and cells were seeded into 96 well plates and grown overnight. Medium was aspirated from the wells, cells were washed twice with NaCl-HEPES buffer (100 mM NaCl, 50 mM HEPES, 10 mM glucose, 5 mM KCl, 2 mM CaCl2, 1 mM MgCl2, pH 7.4), then incubated for 30 min at room temperature with NH4Cl-HEPES buffer (20 mM NH4Cl, 80 mM NaCl, 50 mM HEPES, 5 mM KCl, 2 mM CaCl2, 1 mM MgCl2, pH 7.4) containing 5 μM bis(acetoxymethyl) 3,3′-(3′,6′-bis(acetoxymethoxy)-5-((acetoxymethoxy)carbonyl)-3-oxo-3H-spiro[isobenzofuran-1,9′-xanthene]-2′,7′-diyl)dipropanoate (BCECF-AM). Cells were washed twice with Ammonium free, Na^+-free HEPES (100 mM choline, 50 mM HEPES, 10 mM glucose, 5 mM KCl, 2 mM CaCl2, 1 mM MgCl2, pH 7.4) and incubated in the same buffer for 10 minutes at room temperature to lower intracellular pH. […] Initial rates were plotted as the average 2 or more replicates, and pIC50 values were estimated using GraphPad Prism.

[2] = target: T2, Rat NHE-3 (Rattus norvegicus, UniProt P26433); experiment: Cell-based assay of NHE-3 activity (rat NHE-3 prompt inhibition); details: OK cells with rat NHE-3 gene, compound present during pH recovery; read-out: Rat NHE3 pIC50 (prompt) (converted)
T2 construct: expressed in transfected cells; host or cells: Opossum kidney (OK) cells (ATCC), transfected by electroporation
Experimental: as §1

[3] = target: T2, Rat NHE-3; experiment: Cell-based assay of NHE-3 activity (persistent inhibition, after washout); details: OK cells with rat NHE-3 gene, 60 min incubation, recovery initiated 40 min after compound washout; read-out: Rat NHE3 pIC50 (persistent) (converted)
Experimental: The ability of compounds to inhibit Rat NHE-3-mediated Na^+-dependent H^+ antiport after application and washout was measured using a modification of the pH sensitive dye method described above in Example 74. Opossum kidney (OK) cells were obtained from the ATCC and propagated per their instructions. The rat NHE-3 gene was introduced into OK cells via electroporation, and cells were seeded into 96 well plates and grown overnight. Medium was aspirated from the wells, cells were washed twice with NaCl-HEPES buffer (100 mM NaCl, 50 mM HEPES, 10 mM glucose, 5 mM KCl, 2 mM CaCl2, 1 mM MgCl2, pH 7.4), then overlayed with NaCl-HEPES buffer containing 0-30 μM test compound. After a 60 min incubation, the test drug containing buffer was aspirated from the cells, cells were washed twice with NaCl-HEPES buffer without drug, then incubated for 30 min at room temperature with NH4Cl-HEPES buffer (20 mM NH4Cl, 80 mM NaCl, 50 mM HEPES, 5 mM KCl, 2 mM CaCl2, 1 mM MgCl2, pH 7.4) containing 5 μM BCECF-AM. Cells were washed twice with ammonium free, Na^+-free HEPES (100 mM choline, 50 mM HEPES, 10 mM glucose, 5 mM KCl, 2 mM CaCl2, 1 mM MgCl2, pH 7.4) and incubated in the same buffer for 10 minutes at room temperature to lower intracellular pH. […] Initial rates were plotted as the average 2 or more replicates, and pIC50 values were estimated using GraphPad Prism.

T2 sequence (P26433 29-831): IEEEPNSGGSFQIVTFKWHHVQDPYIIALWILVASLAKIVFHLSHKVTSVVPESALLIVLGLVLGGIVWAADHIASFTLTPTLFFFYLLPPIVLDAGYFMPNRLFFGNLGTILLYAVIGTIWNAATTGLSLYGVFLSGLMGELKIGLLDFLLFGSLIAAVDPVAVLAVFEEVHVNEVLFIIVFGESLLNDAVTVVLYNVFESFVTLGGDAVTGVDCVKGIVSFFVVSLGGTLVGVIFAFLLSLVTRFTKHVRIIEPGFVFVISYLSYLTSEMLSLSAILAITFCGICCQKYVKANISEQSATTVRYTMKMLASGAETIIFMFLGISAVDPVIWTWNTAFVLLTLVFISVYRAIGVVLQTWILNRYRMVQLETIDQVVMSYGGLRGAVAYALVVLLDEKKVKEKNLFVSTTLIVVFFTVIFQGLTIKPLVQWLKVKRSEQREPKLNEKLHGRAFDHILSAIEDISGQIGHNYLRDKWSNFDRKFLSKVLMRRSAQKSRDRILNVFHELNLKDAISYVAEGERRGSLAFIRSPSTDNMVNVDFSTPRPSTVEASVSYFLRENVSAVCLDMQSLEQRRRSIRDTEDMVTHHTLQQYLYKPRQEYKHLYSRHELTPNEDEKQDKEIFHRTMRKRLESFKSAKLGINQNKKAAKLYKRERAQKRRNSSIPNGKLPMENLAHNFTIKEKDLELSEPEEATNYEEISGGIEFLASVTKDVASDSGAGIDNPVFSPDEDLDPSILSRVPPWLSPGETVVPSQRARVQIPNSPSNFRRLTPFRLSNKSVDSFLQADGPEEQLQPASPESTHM

## CN1Cc2c(Cl)cc(Cl)cc2[C@H](c2cccc(S(=O)(=O)NCCOCCOCCOCCn3cc(CN(Cc4cn(CCOCCOCCOCCNS(=O)(=O)c5cccc([C@@H]6CN(C)Cc7c(Cl)cc(Cl)cc76)c5)nn4)Cc4cn(CCOCCOCCOCCNS(=O)(=O)c5cccc([C@@H]6CN(C)Cc7c(Cl)cc(Cl)cc76)c5)nn4)nn3)c2)C1 [Example 18, (S,S)—N,N′,N″-(2,2′,2″-(2,2′,2″-(2,2′,2″-(2,2′,2″-(4,4′,4″-nitrilotris(methylene)tris(1H-1,2,3-triazole-4,1-diyl))tris(ethane-2,1-diyl))tris(oxy)tris(ethane-2,1-diyl))tris(oxy)tris(ethane-2,1-diyl))tris(oxy)tris(ethane-2,1-diyl))tris(3-((S)-6,8-dichloro-2-methyl-1,2,3,4-tetrahydroisoquinolin-4-yl)benzenesulfonamide)]
[1]
  IC50: 0.1 to 10 µM
[2]
  IC50: 0.1 to 10 µM
[3]
  IC50: > 10 µM

## CN1Cc2c(Cl)cc(Cl)cc2[C@H](c2cccc(S(=O)(=O)NCCOCCOCCNC(=O)NCCN(CCNC(=O)NCCOCCOCCNS(=O)(=O)c3cccc([C@@H]4CN(C)Cc5c(Cl)cc(Cl)cc54)c3)C(=O)NCCCCCCCCCCCCNC(=O)N(CCNC(=O)NCCOCCOCCNS(=O)(=O)c3cccc([C@@H]4CN(C)Cc5c(Cl)cc(Cl)cc54)c3)CCNC(=O)NCCOCCOCCNS(=O)(=O)c3cccc([C@@H]4CN(C)Cc5c(Cl)cc(Cl)cc54)c3)c2)C1 [Example 45]
[1]
  IC50: 0.1 to 10 µM
[2]
  IC50: 0.1 to 10 µM
[3]
  IC50: > 10 µM

## CN1Cc2c(Cl)cc(Cl)cc2[C@H](c2cccc(S(=O)(=O)NCCOCCOCCOCCNC(=O)CN(CCOCCOCCN(CC(=O)NCCOCCOCCOCCNS(=O)(=O)c3cccc([C@@H]4CN(C)Cc5c(Cl)cc(Cl)cc54)c3)CC(=O)NCCOCCOCCOCCNS(=O)(=O)c3cccc([C@@H]4CN(C)Cc5c(Cl)cc(Cl)cc54)c3)CC(=O)NCCOCCOCCOCCNS(=O)(=O)c3cccc([C@@H]4CN(C)Cc5c(Cl)cc(Cl)cc54)c3)c2)C1 [Example 42, 3,12-bis(14-(3-((S)-6,8-dichloro-2-methyl-1,2,3,4-tetrahydroisoquinolin-4-yl)phenylsulfonamido)-2-oxo-6,9,12-trioxa-3-azatetradecyl)-N^1,N^14-bis(2-(2-(2-(2-(3-((S)-6,8-dichloro-2-methyl-1,2,3,4-tetrahydroisoquinolin-4-yl)phenylsulfonamido)ethoxy)ethoxy)ethoxy)ethyl)-6,9-dioxa-3,12-diazatetradecane-1,14-diamide]
[1]
  IC50: < 0.1 µM
[2]
  IC50: < 0.1 µM
[3]
  IC50: < 0.1 µM

## CN1Cc2c(Cl)cc(Cl)cc2[C@H](c2cccc(S(=O)(=O)NCCOCCOCCOCCNC(=O)CCC(CCC(=O)NCCOCCOCCOCCNS(=O)(=O)c3cccc([C@@H]4CN(C)Cc5c(Cl)cc(Cl)cc54)c3)(CCC(=O)NCCOCCOCCOCCNS(=O)(=O)c3cccc([C@@H]4CN(C)Cc5c(Cl)cc(Cl)cc54)c3)NC(=O)c3ccc(-c4ccc(Cl)cc4)cc3)c2)C1 [Example 16, 4-(4′-chlorobiphenyl-4-ylcarboxamido)-4-(1-(3-((S)-6,8-dichloro-2-methyl-1,2,3,4-tetrahydroisoquinolin-4-yl)phenylsulfonamido)-13-oxo-3,6,9-trioxa-12-azapentadecan-15-yl)-N^1,N^7-bis(2-(2-(2-(2-(3-((S)-6,8-dichloro-2-methyl-1,2,3,4-tetrahydroisoquinolin-4-yl)phenylsulfonamido)ethoxy)ethoxy)ethoxy)ethyl)heptanediamide]
[1]
  IC50: > 10 µM
[2]
  IC50: 0.1 to 10 µM
[3]
  IC50: 0.1 to 10 µM

## CN1Cc2c(Cl)cc(Cl)cc2[C@H](c2cccc(S(=O)(=O)NCCOCCOCCOCCNC(=O)CCC(CCC(=O)NCCOCCOCCOCCNS(=O)(=O)c3cccc([C@@H]4CN(C)Cc5c(Cl)cc(Cl)cc54)c3)(CCC(=O)NCCOCCOCCOCCNS(=O)(=O)c3cccc([C@@H]4CN(C)Cc5c(Cl)cc(Cl)cc54)c3)NCc3ccc(-c4ccc(Cl)cc4)cc3)c2)C1 [Example 19, 4-((4′-chlorobiphenyl-4-yl)methylamino)-4-(1-(3-((S)-6,8-dichloro-2-methyl-1,2,3,4-tetrahydroisoquinolin-4-yl)phenylsulfonamido)-13-oxo-3,6,9-trioxa-12-azapentadecan-15-yl)-N^1,N^7-bis(2-(2-(2-(2-(3-((S)-6,8-dichloro-2-methyl-1,2,3,4-tetrahydroisoquinolin-4-yl)phenylsulfonamido)ethoxy)ethoxy)ethoxy)ethyl)heptanediamide]
[1]
  IC50: > 10 µM
[2]
  IC50: > 10 µM
[3]
  IC50: < 0.1 µM

## CN1Cc2c(Cl)cc(Cl)cc2[C@H](c2cccc(S(=O)(=O)NCCOCCOCCNC(=O)CN(CCOCCOCCN(CC(=O)NCCOCCOCCNS(=O)(=O)c3cccc([C@@H]4CN(C)Cc5c(Cl)cc(Cl)cc54)c3)CC(=O)NCCOCCOCCNS(=O)(=O)c3cccc([C@@H]4CN(C)Cc5c(Cl)cc(Cl)cc54)c3)CC(=O)NCCOCCOCCNS(=O)(=O)c3cccc([C@@H]4CN(C)Cc5c(Cl)cc(Cl)cc54)c3)c2)C1 [Example 50]
[1]
  Human NHE3 pIC50: B (B NHE3 pIC50 5-7)

## CN1Cc2c(Cl)cc(Cl)cc2[C@H](c2cccc(S(=O)(=O)NCCOCCOCCN(C)C(=O)CCC(CCC(=O)N(C)CCOCCOCCNS(=O)(=O)c3cccc([C@@H]4CN(C)Cc5c(Cl)cc(Cl)cc54)c3)(CCC(=O)N(C)CCOCCOCCNS(=O)(=O)c3cccc([C@@H]4CN(C)Cc5c(Cl)cc(Cl)cc54)c3)N(C)C)c2)C1 [Example 71]
[1]
  Human NHE3 pIC50: C (C NHE3 pIC50 > 7)

## CN1Cc2c(Cl)cc(Cl)cc2[C@H](c2cccc(S(=O)(=O)NCCOCCOCCNC(=O)NCCN(CCNC(=O)NCCOCCOCCNS(=O)(=O)c3cccc([C@@H]4CN(C)Cc5c(Cl)cc(Cl)cc54)c3)C(=O)NCCCCNC(=O)N(CCNC(=O)NCCOCCOCCNS(=O)(=O)c3cccc([C@@H]4CN(C)Cc5c(Cl)cc(Cl)cc54)c3)CCNC(=O)NCCOCCOCCNS(=O)(=O)c3cccc([C@@H]4CN(C)Cc5c(Cl)cc(Cl)cc54)c3)c2)C1 [Example 60]
[1]
  Human NHE3 pIC50: C (C NHE3 pIC50 > 7)

## CN1Cc2c(Cl)cc(Cl)cc2[C@H](c2cccc(S(=O)(=O)NCCOCCOCCNC(=O)CCC(CCC(=O)NCCOCCOCCNS(=O)(=O)c3cccc([C@@H]4CN(C)Cc5c(Cl)cc(Cl)cc54)c3)(CCC(=O)NCCOCCOCCNS(=O)(=O)c3cccc([C@@H]4CN(C)Cc5c(Cl)cc(Cl)cc54)c3)NC(=O)c3ccc(-c4ccc(Cl)cc4)cc3)c2)C1 [Example 35]
[1]
  Human NHE3 pIC50: B (B NHE3 pIC50 5-7)

— patent US10385024B2, “Compounds and methods for inhibiting NHE-mediated antiport in the treatment of disorders associated with fluid retention or salt overload and gastrointestinal tract disorders” (Ardelyx, Inc., priority 2012, dated 2019)
